This note sets out measurements from patent publication US10752593B2, “Compounds for use as therapeutically active substances in the treatment of retinal diseases” (ENDOGENA THERAPEUTICS, INC., priority 2018, dated 2020).

The assay has as its system retinal precursor cells. The assay is described as follows: Sphere passaging and high-throughput drug screening: proliferation of retinal precursor cells within one week. As to conditions: for increase of cell proliferation within one week: increase over control, retinal precursor cells; for Cell proliferation within one week [%]: retinal precursor cells grown one week with compound in 0.1% DMSO, control without compound = 100. The assay is classed as cell-based, mammalian. As for the experimental part:
Kynurenic Acid (0.2 mg/mL), trypsin (1.33 mg/mL), and hyaluronidase (0.67 mg/mL) were weighed out and dissolved in high magnesium/low calcium artificial cerebral spinal fluid (aCSF) at 37° C. Fibroblast growth factor 2 (FGF2; 10 ng/mL) and heparin (2 μg/mL) were added to 100 mL of serum-free media (SFM). Ovomucoid trypsin inhibitor (1 mg/mL) was dissolved in warm SFM and sterile filtered ([…]).
A dissecting microscope, cold light source, and sterile surgical instruments were set up inside of a sterile biological safety cabinet (BSC). Mammalian eyes were enucleated and placed in a petri dish containing cold, sterile aCSF. Under the dissecting microscope, hair, connective tissue, and the dorsal and ventral oblique muscles were cleared from the scleral/corneal border with two sets of forceps. Next, curved or angled micro-dissecting scissors were used to cleave any remaining extraocular muscle tissue, the optic nerve, and cut the eyeball into symmetrical halves; beginning and finishing the cut from the hole left by the optic nerve. Using two sets of forceps to grasp the cornea, the two eye halves were peeled apart. The lens, optic nerve, and vitreous were separated from the eye shells and the eye shells were transferred into a new petri dish (also containing cold, sterile aCSF). To isolate the ciliary epithelium (CE), eye shells were oriented with the cornea on the right and retinal pigmented epithelium (RPE) on the left. A pair of straight forceps were used to pin down the eye shell on the RPE side while a scalpel blade was inserted between the CE and the iris, using pressure to slice the iris/cornea side off from the rest of the shell. Next, the scalpel was run along the border between the CE and the RPE to obtain the CE isolated as a thin strip of tissue. The CE strips were then transferred to a 35 mm dish containing 2 mL of dispase solution (Sigma; T1005) and incubated for 10 minutes at 37° C. Next, the strips were transferred from dispase into a 35 mm dish containing 2 mL of sterile filtered kynurenic acid, trypsin and hyaluronidase solution and incubated at 37° C. for 10 minutes. After incubation, the dish was returned to the dissecting scope, and the CE strips were pinned down with straight, non-serrated forceps, while non-serrated curved forceps were used to scrape the CE off from the underlying sclera. The bare scleral strips were then discarded, such that only the CE cells remained in the enzyme solution. Using a fire-polished, cotton-plugged glass pipette, the cells and enzyme solution were transferred to a 15 mL tube and triturated approximately 45 times to break apart the tissue. The 15 mL tube/cell suspension was centrifuged for 5 minutes at 1500 rpm. The supernatant was gently aspirated from the resulting pellet using a fire-polished, cotton-plugged glass pipette and 2 mL of trypsin inhibitor solution was added to the pellet. Using a small borehole, fire-polished, cotton-plugged glass pipette, the sample was triturated approximately 45 times until it was a single-cell suspension. The 15 mL tube/cell suspension was centrifuged for 5 minutes at 1500 rpm. The supernatant was gently aspirated from the resulting pellet and 1-2 mL of SFM with FGF2 and heparin (plating media) was added. The cells and media were mixed to ensure a uniform cell suspension and a 10 uL sample was taken and cell density was determined. The cells were then seeded and cultured at 10c/μL in culture-treated plates or flasks. After one week, roughly 1 in 500 cells proliferated to form free-floating, clonal spheres greater than 80 μm in diameter.
Human-derived spheres were passaged using the kynurenic acid, trypsin, hyaluronidase enzyme solution with the addition of collagenase I (0.5 mg/mL), collagenase II (0.5 mg/mL) and elastase (0.1 mg/mL). Mouse-derived spheres were passaged using hyaluronidase (0.67 mg/mL), collagenase I (0.5 mg/mL), and collagenase II (0.5 mg/mL) dissolved in Accustase solution (Sigma; SCR005). […]

Setting [1] is: results table after the methods.

Turning to `COc1cc(NC(=O)Cc2ccccc2Cl)ccc1-c1ccncc1` [Compound E0027, 2-(2-chlorophenyl)-N-(3-methoxy-4-(pyridin-4-yl)phenyl)acetamide], the “increase of cell proliferation within one week” value (from here on “increase”) is reported as 48%. Further, the “Cell proliferation within one week [%]” value under setting [1] is 148%.

For `COc1cccc(CC(=O)Nc2ccc(-c3cnco3)c(Cl)c2)c1` [Compound E0146, N-(3-chloro-4-(oxazol-5-yl)phenyl)-2-(3-methoxyphenyl)acetamide], the “increase” value was 103%. Further, the “Cell proliferation within one week [%]” value under setting [1] is given as 203%. For the same compound, the “Cell proliferation within one week [%]” value (concentration not given) came out at 203%.

Take `O=C(Cc1ccccc1C(F)(F)F)Nc1ccc(-c2cnco2)c(Cl)c1` [Compound E0147, N-(3-chloro-4-(oxazol-5-yl)phenyl)-2-(2-(trifluoromethyl)phenyl)acetamide]: the “increase” value was 42%. The “Cell proliferation within one week [%]” value under setting [1] was 142%. Moreover, the “Cell proliferation within one week [%]” value (concentration not given) was 142%.

With `O=C(Cc1cccc(Br)c1)Nc1ccc(-c2cnco2)c(Cl)c1` [Compound E0148, 2-(3-bromophenyl)-N-(3-chloro-4-(oxazol-5-yl)phenyl)acetamide], the “increase” value stood at 43%. In addition, the “Cell proliferation within one week [%]” value under setting [1] is given as 143%. Besides, the “Cell proliferation within one week [%]” value (concentration not given) is listed as 143%.

As to `O=C(Cc1ccc(F)cc1F)Nc1ccc(-c2cnco2)c(Cl)c1` [Compound E0149, N-(3-chloro-4-(oxazol-5-yl)phenyl)-2-(2,4-difluorophenyl)acetamide], the “increase” value turned out to be 57%. In addition, the “Cell proliferation within one week [%]” value under setting [1] was 157%. The “Cell proliferation within one week [%]” value (concentration not given) amounted to 157%.

As to `O=C(Cc1cc(F)ccc1Cl)Nc1ccc(-c2cnco2)c(Cl)c1` [Compound E1017, N-(3-chloro-4-(oxazol-5-yl)phenyl)-2-(2-chloro-5-fluorophenyl)acetamide], the “Cell proliferation within one week [%]” value reads like this: under setting [1], 121%; (concentration not given) 121%.

For the compound `O=C(Cc1cccc(C(F)(F)F)c1)Nc1ccc(-c2cnco2)c(Cl)c1` [Compound E1018, N-(3-chloro-4-(oxazol-5-yl)phenyl)-2-(3-(trifluoromethyl)phenyl)acetamide], the “Cell proliferation within one week [%]” value reads like this: under setting [1], 134%; (concentration not given) 134%.

Regarding `O=C(Cc1ccc(Cl)cc1)Nc1ccc(-c2cnco2)c(Cl)c1` [Compound E1019, N-(3-chloro-4-(oxazol-5-yl)phenyl)-2-(4-chlorophenyl)acetamide], the “Cell proliferation within one week [%]” value is recorded as 133% under setting [1] and 133% (concentration not given).

In the case of `O=C(Cc1ccccc1OC(F)F)Nc1ccc(-c2cnco2)c(Cl)c1` [Compound E1020, N-(3-chloro-4-(oxazol-5-yl)phenyl)-2-(2-(difluoromethoxy)phenyl)acetamide], the “Cell proliferation within one week [%]” value was 135% under setting [1] and 135% (concentration not given).

On to `O=C(Cc1ccccc1)Nc1ccc(-c2cnco2)c(Cl)c1` [Compound E1021, N-(3-chloro-4-(oxazol-5-yl)phenyl)-2-phenylacetamide], for which the “increase” value was 49%. For the same compound, under setting [1], the “Cell proliferation within one week [%]” value is 149%. Further, for the setting “concentration not given”, the “Cell proliferation within one week [%]” value came to 149%.

As to `O=C(Cc1ccccc1Cl)Nc1ccc(-c2cnco2)c(Cl)c1` [Compound E1022, N-(3-chloro-4-(oxazol-5-yl)phenyl)-2-(2-chlorophenyl)acetamide], the “increase” value is listed as 58%. In addition, the “Cell proliferation within one week [%]” value under setting [1] is on record as 158%. The “Cell proliferation within one week [%]” value (concentration not given) was determined as 158%.

As for `COc1ccccc1CC(=O)Nc1ccc(-c2cnco2)c(Cl)c1` [Compound E1024, N-(3-chloro-4-(oxazol-5-yl)phenyl)-2-(2-methoxyphenyl)acetamide], the “Cell proliferation within one week [%]” value runs as follows: under setting [1], 128%; (concentration not given) 128%.

On to `COc1ccccc1CC(=O)Nc1ccc(-c2cnco2)c(F)c1` [Compound E1025, N-(3-fluoro-4-(oxazol-5-yl)phenyl)-2-(2-methoxyphenyl)acetamide], for which the “Cell proliferation within one week [%]” value by setting is: under setting [1], 106%; (concentration not given) 106%.

Regarding `O=C(Cc1cccc(OC(F)F)c1)Nc1ccc(-c2cnco2)c(Cl)c1` [Compound E1026, N-(3-chloro-4-(oxazol-5-yl)phenyl)-2-(3-(difluoromethoxy)phenyl)acetamide], the “Cell proliferation within one week [%]” value runs as follows: under setting [1], 122%; (concentration not given) 122%.

For `O=C(Cc1cccc(OC(F)F)c1)Nc1ccc(-c2cnco2)c(F)c1` [Compound E1027, 2-(3-(difluoromethoxy)phenyl)-N-(3-fluoro-4-(oxazol-5-yl)phenyl)acetamide], the “Cell proliferation within one week [%]” value by setting is: under setting [1], 120%; (concentration not given) 120%.

With `O=C(Cc1ccccc1OC(F)F)Nc1ccc(-c2cnco2)c(F)c1` [Compound E1028, 2-(2-(difluoromethoxy)phenyl)-N-(3-fluoro-4-(oxazol-5-yl)phenyl)acetamide], the “Cell proliferation within one week [%]” value under setting [1] was 119% and the “Cell proliferation within one week [%]” value (concentration not given) was 119%.

In the case of `O=C(Cc1cc(F)ccc1Cl)Nc1ccc(-c2cnco2)c(F)c1` [Compound E1030, 2-(2-chloro-5-fluorophenyl)-N-(3-fluoro-4-(oxazol-5-yl)phenyl)acetamide], the “Cell proliferation within one week [%]” value under setting [1] stood at 133% and the “Cell proliferation within one week [%]” value (concentration not given) is 133%.

`O=C(Cc1ccccc1)Nc1ccc(-c2cnco2)c(F)c1` [Compound E1031, N-(3-fluoro-4-(oxazol-5-yl)phenyl)-2-phenylacetamide]: the “Cell proliferation within one week [%]” value runs as follows: under setting [1], 123%; (concentration not given) 123%.

Turning to `O=C(Cc1ccccc1Cl)Nc1ccc(-c2cnco2)c(F)c1` [Compound E1032, 2-(2-chlorophenyl)-N-(3-fluoro-4-(oxazol-5-yl)phenyl)acetamide], the “Cell proliferation within one week [%]” value was found to be 137% under setting [1] and 137% (concentration not given).

Consider `O=C(Cc1ccc(Cl)cc1)Nc1ccc(-c2cnco2)c(F)c1` [Compound E1039, 2-(4-chlorophenyl)-N-(3-fluoro-4-(oxazol-5-yl)phenyl)acetamide], for which the “Cell proliferation within one week [%]” value is listed as 107% under setting [1] and 107% (concentration not given).

Regarding `COc1cccc(CC(=O)Nc2ccc(-c3cnco3)c(F)c2)c1` [Compound E1042, N-(3-fluoro-4-(oxazol-5-yl)phenyl)-2-(3-methoxyphenyl)acetamide], the “Cell proliferation within one week [%]” value is recorded as 127% under setting [1] and 127% (concentration not given).

`O=C(Cc1ccc(F)cc1F)Nc1ccc(-c2cnco2)c(F)c1` [Compound E1045, 2-(2,4-difluorophenyl)-N-(3-fluoro-4-(oxazol-5-yl)phenyl)acetamide]: the “Cell proliferation within one week [%]” value reads like this: under setting [1], 140%; (concentration not given) 140%.

For `O=C(Cc1cccc(C(F)(F)F)c1)Nc1ccc(-c2cnco2)c(F)c1` [Compound E1048, N-(3-fluoro-4-(oxazol-5-yl)phenyl)-2-(3-(trifluoromethyl)phenyl)acetamide], the “Cell proliferation within one week [%]” value is listed as 105% under setting [1] and 105% (concentration not given).

In the case of `O=C(Cc1ccccc1C(F)(F)F)Nc1ccc(-c2cnco2)c(F)c1` [Compound E1051, N-(3-fluoro-4-(oxazol-5-yl)phenyl)-2-(2-(trifluoromethyl)phenyl)acetamide], the “Cell proliferation within one week [%]” value is recorded as 118% under setting [1] and 118% (concentration not given).

`O=C(Cc1ccccc1Cl)Nc1ccc(-c2ccncc2)cc1` [Compound E1060, 2-(2-chlorophenyl)-N-(4-(pyridin-4-yl)phenyl)acetamide]: the “increase” value is 44%. Under setting [1], the “Cell proliferation within one week [%]” value is given as 144%.
